# In patent US5990113A, “Monohydrates of aminobenzenesulfonic acid derivatives and method for preparing thereof” (priority 1995, dated 1999):
# Entries after “also recorded” stand apart in the source; their conditions may differ. Read-outs that look alike come from different tables or passages of the source.
# Assays:
# [1] = Hygroscopic property: weight change on storage in a desiccator; format: physicochemical; conditions: 20° C.
# Procedure: Each of the samples of the monohydrate of the present invention was put in a desiccator adjusted at a relative humidity of 57% or 98%, and then stored at 20° C. for 16 days. Weight changes during the period of time were measured. As controls, the anhydrous crystals obtained in the above process (a) in Example 1 were also stored in a desiccator adjusted at a relative humidity of 57% or 98%, and weight changes were measured. The results are shown in Table 2 [in the table, each of the values (%) represents a weight increase]. […] On the other hand, as for the anhydrous crystal, the weight increase of about 7% was observed, which corresponded to about 1 mole of the water of crystal.
# [2] = Weight and appearance on further drying; format: physicochemical; conditions: further 27 hours, 50° C., 90 mmHg
# Procedure: The anhydrous crystal of 5-Methyl-2-(1-piperazinyl) benzenesulfonic acid (10.00 g) and distilled water (30 ml) were added in a 100 ml round-bottomed flask and the mixture was stirred at 5° C. for 2 hours. The crystals were collected from the suspension by suction filtration and the crystals remained in the round-bottomed flask were recovered by washing with distilled water (3 ml). The crystals were combined and dried at 50° C. and 90 mmHg for 3 hours to give 5-methyl-2-(1-piperazinyl)benzenesulfonic acid monohydrate as white crystals (10.36 g, yield: 96.8%). After drying was further continued for 27 hours under the same conditions, the weight and appearance of the monohydrate were not changed. Water content measured by a Karl Fischer water content meter was 6.96%, which further verified that the product was the monohydrate (calculated content: 6.56%).
# The anhydrous crystal of 5-Methyl-2-(1-piperazinyl) benzenesulfonic acid (10.00 g) and distilled water (75 ml) were charged in a 200 ml round-bottomed flask and the crystals were thoroughly dissolved by heating under reflux with stirring. The solution was then cooled to 5° C. with stirring and stirring was further continued for 2 hours at the same temperature. […] Water content measured by a Karl Fischer water content meter was 6.75%, which further verified that the product was the monohydrate. […]
# [3] = rat, in vivo
# [4] = Stability and release of water of crystal of the monohydrate; format: physicochemical; conditions: for stability (in words): long period / room temperature / once formed, monohydrate
# [5] = Thermal analysis (TG-DTA); format: physicochemical; conditions: dry nitrogen, 5° C./min
# Procedure: The anhydrous crystal described in Example 1 of the Japanese Patent Unexamined Publication (KOKAI) No.(Hei)3-7263/1991 and the monohydrate of the present invention were subjected to thermal analysis by a thermal analyzer (RIGAKU TAS-200) under dry nitrogen atmosphere using each of 10 mg of samples. The measurements were carried out in the temperature range of from 50 to 400° C. applying the temperature raising rate of 5° C./min. As the anhydrous crystals, those obtained in the above process (a) was used.
# [6] = rat, in vivo; remark: listed apart in the source
# Procedure: Using these values of AUC(0-.infin.) and the doses applied, the bioavailability was calculated according to the following Equation 1. [formula]
# [7] = Serum concentration (2): serum radioactivity after oral administration at several doses; conditions: male rats, Mean ± S.D (n = 5)
# cardiac muscle cells = conditions: cited from earlier work
compound,measurement,setting,value
"Cc1ccc(N2CCNCC2)c(S(=O)(=O)O)c1.O [Monohydrate, 5-methyl-2-(1-piperazinyl)benzenesulfonic acid monohydrate]","weight increase, 0 day",[1]; 57% RH,0.00%
same,"weight increase, 1 day",[1]; 57% RH,0.11%
same,"weight increase, 3 days",[1]; 57% RH,0.20%
same,"weight increase, 16 days",[1]; 57% RH,0.21%
same,weight change (in words),"[1]; 57% and 98% RH, 16 days",No substantial weight change
same,"weight increase, 0 day",[1]; 98% RH,0.00%
same,"weight increase, 1 day",[1]; 98% RH,0.28%
same,"weight increase, 3 days",[1]; 98% RH,0.40%
same,"weight increase, 16 days",[1]; 98% RH,0.39%
same,weight and appearance after further drying,[2],not changed
same,serum concentration versus dose (in words),[3],linear direct proportion to the dose of administration
same,heating temperature at which water of crystal is gradually released,[4]; ambient or reduced pressure,≥ 60 °C
same,stability (in words),[4]; listed as monohydrate of 2-(1-piperazinyl)-5-methylbenzenesulfonic acid,stable at room temperature for a long period of time
same,stability (in words),[4],stable and free from weight variation by hygroscopicity; also recorded: stable for a long period of time
same,temperature from which weight loss and thermal absorption peak due to release of the water of crystal were observed,[5],around 60 °C
same,weight loss due to release of the water of crystal,[5]; 50 to 400° C.,6.57%
same,bioavailability,"[6]; po, 1 mg/kg",38%
"Cc1ccc(N2CCNCC2)c(S(=O)(=O)O)c1 [Anhydrous crystal, 2-(1-piperazinyl)-5-methylbenzenesulfonic acid, reference compound]","weight increase, 0 day",[1]; 57% RH,0.00%
same,"weight increase, 1 day",[1]; 57% RH,6.99%
same,"weight increase, 3 days",[1]; 57% RH,7.08%
same,"weight increase, 16 days",[1]; 57% RH,6.89%
same,weight increase,"[1]; 57% and 98% RH, 16 days, about 1 mole of water of crystal",about 7%
same,"weight increase, 0 day",[1]; 98% RH,0.00%
same,"weight increase, 1 day",[1]; 98% RH,7.35%
same,"weight increase, 3 days",[1]; 98% RH,7.36%
same,"weight increase, 16 days",[1]; 98% RH,7.12%
same,weight loss or thermal absorption peak due to release of the water of crystal (in words),[5]; below 100° C.,no weight loss or no thermal absorption peak
same,"bioavailability, maximum value of fluctuation","[6]; po, 0.94 mg/kg",43.72%
same,"bioavailability, minimum value of fluctuation","[6]; po, 0.94 mg/kg",33.03%
"Cc1ccc(N2CCNCC2)c(S(=O)(=O)O)c1 [labeled compound, labeled 2-(1-piperazinyl)-5-methylbenzenesulfonic acid monohydrate]",AUC,[7]; oral 0.1 mg/kg,64.1 ± 12.3 ng·h/mL
same,C max,[7]; oral 0.1 mg/kg,16.2 ± 2.6 ng/mL
same,T max,[7]; oral 0.1 mg/kg,2.2 ± 0.5 h
same,t 1/2,[7]; oral 0.1 mg/kg,1.77 ± 0.34 h
same,AUC,[7]; oral 0.3 mg/kg,270.5 ± 88.4 ng·h/mL
same,C max,[7]; oral 0.3 mg/kg,69.0 ± 17.8 ng/mL
same,T max,[7]; oral 0.3 mg/kg,2.2 ± 0.5 h
same,t 1/2,[7]; oral 0.3 mg/kg,1.33 ± 0.09 h
same,AUC,[7]; oral 1 mg/kg,574.4 ± 113.2 ng·h/mL
same,C max,[7]; oral 1 mg/kg,171.6 ± 31.1 ng/mL
same,T max,[7]; oral 1 mg/kg,1.8 ± 0.5 h
same,t 1/2,[7]; oral 1 mg/kg,1.64 ± 0.17 h
same,AUC,[7]; oral 3 mg/kg,1769.2 ± 498.4 ng·h/mL
same,C max,[7]; oral 3 mg/kg,501.5 ± 133.8 ng/mL
same,T max,[7]; oral 3 mg/kg,2.0 ± 0.0 h
same,t 1/2,[7]; oral 3 mg/kg,1.30 ± 0.08 h
same,AUC(0-.infin.),"[6]; iv, 0.3 mg/kg",816.28 ng eq·h/ml
same,AUC(0-.infin.),"[6]; po, 1 mg/kg",1039.86 ng eq·h/ml
"Cc1ccc(N2CCNCC2)c(S(=O)(=O)O)c1 [Compound 2, 2-(1-piperazinyl)-5-methylbenzenesulfonic acid]",inhibition of the inflow of calcium ions into cardiac muscle cells (in words),cardiac muscle cells,remarkably inhibits
